In brackets after ≈: the same amount, converted by molar mass. Where two headings read alike, the source gives them in different places.
What was measured:
Assay in all cases: Agar diffusion assay for antibacterial activity (MIC)
Format in all cases: cell-based
[1] = tested on: Staphylococcus aureus MB 4310; details: read-out: Minimum inhibitory conc.
Protocol: (§1) A stock solution of each test compound was prepared at a concentration of 1.28 mg/ml using sterile distilled water. After initial solubilization, two-fold dilutions were prepared and added as one-ml portions to 15 x 100 mm petri plates. A nine-ml portion of trypticase soy agar (TSA) was melted and added to each plate. The test compound and agar were mixed and allowed to cool. […] Controls were prepared using norfloxacin, coumermycin A-1, or novobiocin, and solvent.
(§2) Each plate was inoculated using a multipoint inoculator with 10⁵ colony-forming units (cfu) of the appropriate bacterium. Each bacterium was stored at -70°C before use and cultured in trypticase soy broth (TSB) at 35°C for 18 hours. The cultures, containing ca. 10⁹ cfu/ml, were diluted as necessary with TSB to provide concentrations of 10⁵ cfu/inoculation spot. The test plates were then incubated at 35°C for 20 hours. Minimum inhibitory concentrations (MIC) for each compound was the lowest concentration that allowed no growth, a barely visible haze, of five or fewer discrete colonies.
(§3) Table VI includes biological test results for representative compounds of this invention using the agar diffusion assay described above. The particular bacterial strains used are representative of organisms for which the compounds are useful as antibacterial agents.

Escherichia coli MB 2891 = details: read-out: Minimum inhibitory conc.
Protocol: as §1, §2, §3

Escherichia coli MB 5157 = details: read-out: Minimum inhibitory conc.
Protocol: as §1, §2, §3

[2] = tested on: Streptococcus faecalis MB 2864; details: Enterococcus faecalis, read-out: Minimum inhibitory conc.
Protocol: as §1, §2, §3

[3] = tested on: Pseudomonas aeruginosa MB 2835; details: MB2835, Ps. aer., strain MB 2835, trypticase soy agar, 10⁵ cfu, 35°C, 20 hours, read-out: Minimum inhibitory conc.
Protocol: as §1, §2, §3

[4] = tested on: Staphylococcus aureus MB 2865; details: read-out: Minimum inhibitory conc.
Protocol: as §1, §2, §3

[5] = tested on: Proteus mirabilis MB 2830; details: read-out: Minimum inhibitory conc.
Protocol: as §1, §2, §3

[6] = tested on: Pseudomonas aeruginosa MB 5160 (Norfloxacin-resistant strain); details: 20 h, read-out: Minimum inhibitory conc.
Protocol: as §1, §2, §3

[7] = tested on: Klebsiella pneumoniae MB 4005; details: read-out: Minimum inhibitory conc.
Protocol: as §1, §2, §3

[8] = tested on: Escherichia coli MB 5158 (Norfloxacin-resistant strain); details: 20 h, read-out: Minimum inhibitory conc.
Protocol: as §1, §2, §3

[9] = MB4310, St. aur., strain MB 4310, trypticase soy agar, 10⁵ cfu, 35°C, 20 hours
[10] = MB2891, E. coli, strain MB 2891, trypticase soy agar, 10⁵ cfu, 35°C, 20 hours
[11] = MB5157, E. coli, strain MB 5157, trypticase soy agar, 10⁵ cfu, 35°C, 20 hours
[12] = MB2864, Str. fae., strain MB 2864, trypticase soy agar, 10⁵ cfu, 35°C, 20 hours
[13] = MB2865, St. aur., strain MB 2865, trypticase soy agar, 10⁵ cfu, 35°C, 20 hours
[14] = MB4005, K. pneu., strain MB 4005, trypticase soy agar, 10⁵ cfu, 35°C, 20 hours
[15] = MB2830, Pr. mir., strain MB 2830, trypticase soy agar, 10⁵ cfu, 35°C, 20 hours

SMILES | MIC [1, 9] [µg/mL] | MIC (Escherichia coli MB 2891; [10]) [µg/mL] | MIC (Escherichia coli MB 5157; [11]) [µg/mL] | MIC [2, 12] [µg/mL] | MIC [3] [µg/mL] | MIC [4, 13] [µg/mL] | MIC ([5]; MB2830, 20 h) [µg/mL] | MIC [6] [µg/mL] | MIC [7, 14] [µg/mL] | MIC [8] [µg/mL] | MIC [5, 15] [µg/mL] | MIC ([2]; MB2864, 20 h) [µg/mL] | MIC (Escherichia coli MB 2891; MB2891, 20 h) [µg/mL] | MIC (Escherichia coli MB 5157; MB5157, 20 h) [µg/mL] | MIC ([7]; MB4005, 20 h) [µg/mL] | MIC ([1]; MB4310, 20 h) [µg/mL] | MIC ([4]; MB2865, 20 h) [µg/mL]
CSc1ccc(-c2[nH]c(=O)c(C(=O)O)cc2-c2ccc(F)cc2)cc1 [Example 36, 5-(4-fluorophenyl)-1,2-dihydro-6-[4-(methylthio)phenyl]-2-oxo-3-pyridine carboxylic acid] | 8 (≈ 22.5 µM) | 64 (≈ 180 µM) | 16 (≈ 45 µM) | 64 (≈ 180 µM) | > 128 | 8 (≈ 22.5 µM) | > 128 | > 128 | 16 (≈ 45 µM) | > 128 |  |  |  |  |  |  | 
COc1ccc(-c2[nH]c(=O)c(C(=O)O)cc2-c2ccc(F)cc2)cc1 [Example 32, 5-(4-Fluorophenyl)-1,2-dihydro-6-(4-methoxyphenyl)-2-oxo-3-pyridinecarboxylic acid] | 1 (≈ 2.95 µM) | 16 (≈ 47.2 µM) | 4 (≈ 11.8 µM) | 16 (≈ 47.2 µM) | > 128 | 2 (≈ 5.89 µM) |  | > 128 | 1 (≈ 2.95 µM) | > 128 | 32 (≈ 94.3 µM) |  |  |  |  |  | 
CN(C)c1ccc(-c2c(-c3ccc(O)cc3)cc(C(=O)O)c(=O)n2C)cc1 [Example 51, 6-[4-(Dimethylamino)phenyl]-1,2-dihydro-5-(4-hydroxyphenyl)-1-methyl-2-oxo-3-pyridinecarboxylic acid] | 0.5 (≈ 1.37 µM) | 0.5 (≈ 1.37 µM) | 2 (≈ 5.49 µM) | 128 (≈ 351 µM) | > 128 | 1 (≈ 2.74 µM) |  | > 128 | 16 (≈ 43.9 µM) | > 128 | 32 (≈ 87.8 µM) |  |  |  |  |  | 
CN(C)c1ccc(-c2[nH]c(=O)c(C(=O)O)cc2-c2ccc(O)cc2)cc1 [Example 30] | 0.25 (≈ 0.714 µM) | 0.25 (≈ 0.714 µM) | 0.25 (≈ 0.714 µM) | 0.5 (≈ 1.43 µM) | > 128 | 0.25 (≈ 0.714 µM) |  | > 128 | < 0.25 | > 128 | 8 (≈ 22.8 µM) |  |  |  |  |  | 
CN(C)c1ccc(-c2c(-c3ccc(F)cc3)cc(C(=O)O)c(=O)n2C)cc1 [Example 52] | 2 (≈ 5.46 µM) | 2 (≈ 5.46 µM) | 4 (≈ 10.9 µM) |  | > 128 | 2 (≈ 5.46 µM) | > 128 | > 128 | 64 (≈ 175 µM) | > 128 |  | > 128 |  |  |  |  | 
C[N+](C)([O-])c1ccc(-c2[nH]c(=O)c(C(=O)O)cc2-c2ccc(F)cc2)cc1 [Example 49] | 0.5 (≈ 1.36 µM) | 32 (≈ 86.9 µM) | 4 (≈ 10.9 µM) | 16 (≈ 43.4 µM) | > 128 | 1 (≈ 2.71 µM) |  | > 128 | 8 (≈ 21.7 µM) | > 128 | 64 (≈ 174 µM) |  |  |  |  |  | 
CN(C)c1ccc(-c2[nH]c(=O)c(C(=O)O)cc2-c2ccc(O)cc2)cc1F [Example 34] | 8 (≈ 21.7 µM) | 4 (≈ 10.9 µM) | 16 (≈ 43.4 µM) | 16 (≈ 43.4 µM) | > 128 | 2 (≈ 5.43 µM) | > 128 | > 128 | 16 (≈ 43.4 µM) | > 128 |  |  |  |  |  |  | 
O=C(O)c1cc(-c2ccc(F)cc2)c(-c2ccc(N3CCCCC3)cc2)[nH]c1=O [Example 42] | 1 (≈ 2.55 µM) |  |  | 64 (≈ 163 µM) | > 128 | 1 (≈ 2.55 µM) | > 128 | > 128 |  | > 128 |  |  | > 128 | > 128 | > 128 |  | 
CS(=O)(=O)c1ccc(-c2[nH]c(=O)c(C(=O)O)cc2-c2ccc(F)cc2)cc1 [Example 47, 5-(4-Fluorophenyl)-1,2-dihydro-6-[4-(methylsulfonyl)phenyl]-2-oxo-3-pyridinecarboxylic acid] |  |  |  |  | > 128 |  | > 128 | > 128 |  | > 128 |  | > 128 | > 128 | > 128 | > 128 | > 128 | > 128
CN(C)c1ccc(-c2[nH]c(=O)c(C(=O)O)cc2-c2ccc(F)cc2)cc1 [Example 33] | 2 (≈ 5.68 µM) | 16 (≈ 45.4 µM) | 8 (≈ 22.7 µM) | 128 (≈ 363 µM) | > 128 | 2 (≈ 5.68 µM) |  | > 128 | 8 (≈ 22.7 µM) | > 128 | 128 (≈ 363 µM) |  |  |  |  |  | 
C[N+](C)([O-])c1ccc(-c2[nH]c(=O)c(C(=O)O)cc2-c2ccc(O)cc2)cc1 [Example 50] | 8 (≈ 21.8 µM) | 8 (≈ 21.8 µM) | 8 (≈ 21.8 µM) | 16 (≈ 43.7 µM) | > 128 | 4 (≈ 10.9 µM) |  | > 128 | 16 (≈ 43.7 µM) | > 128 | 128 (≈ 349 µM) |  |  |  |  |  | 
CN1CCN(c2ccc(-c3[nH]c(=O)c(C(=O)O)cc3-c3ccc(F)cc3)cc2)CC1 [Example 44] | 16 (≈ 39.3 µM) | 8 (≈ 19.6 µM) | 16 (≈ 39.3 µM) | 128 (≈ 314 µM) | > 128 | 32 (≈ 78.5 µM) | > 128 | > 128 | 32 (≈ 78.5 µM) | > 128 |  |  |  |  |  |  | 
C[S+]([O-])c1ccc(-c2[nH]c(=O)c(C(=O)O)cc2-c2ccc(F)cc2)cc1 (stereo not drawn) [Example 48] |  |  |  |  | > 128 |  | > 128 | > 128 |  | > 128 |  | > 128 | > 128 | > 128 | > 128 | > 128 | > 128
O=C(O)c1cc(-c2ccc(F)cc2)c(-c2ccc(N3CCOCC3)cc2)[nH]c1=O [Example 43] | 4 (≈ 10.1 µM) | 16 (≈ 40.6 µM) | 8 (≈ 20.3 µM) | 64 (≈ 162 µM) | > 128 | 4 (≈ 10.1 µM) |  | > 128 | 16 (≈ 40.6 µM) | > 128 | 128 (≈ 325 µM) |  |  |  |  |  | 
CN(C)c1ccc(-c2[nH]c(=O)c(C(=O)O)cc2-c2ccc(O)cc2)c(F)c1 [Example 35] | 1 (≈ 2.71 µM) | 1 (≈ 2.71 µM) | 1 (≈ 2.71 µM) | 4 (≈ 10.9 µM) | > 128 | 0.5 (≈ 1.36 µM) |  | > 128 | 1 (≈ 2.71 µM) | > 128 | 32 (≈ 86.9 µM) |  |  |  |  |  | 

Reference: patent EP0308020A2, “5-(aryl and heteroaryl)-6-(aryl and heteroaryl)-1,2-dihydro-2-oxo 3-pyridinecarboxylic acids and derivatives thereof” (Merck & Co., Inc., priority 1987, dated 1989)
